Patent US20230203059A1, “MACROCYCLIC JAK INHIBITOR AND USES THEREOF” (Biopolar Hongye (Guangdong) Pharmaceutical Co. Ltd., priority 2020, published 2023)
pIC50: −log10 of the molar value.

Tests used:
Type in all cases: biochemical
JAK1 = JAK1 (Homo sapiens, UniProt P23458); experiment: JAK kinase activity, homogeneous time-resolved fluorescence (JAK1 reaction system); conditions: ATP 2 μM, JAK1 protein 0.2 ng/μL; read-out: JAK 1 activity
Outline: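 HTRF assay: JAK1 (0.2 ng/μL) with 2 μM ATP and substrate in 50 mM Hepes pH 7.0, 5 mM MgCl2, 1 mM DTT, 1 h. Phospho-substrate antibody/XL-615 detection with EDTA; 665/615 nm ratio, excitation 320 nm. IC50 from Hill-type fit against no-enzyme and no-compound controls.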

TYK2 = TYK2 (Homo sapiens, UniProt P29597); experiment: JAK kinase activity, homogeneous time-resolved fluorescence (TYK2 reaction system); conditions: ATP 2 μM, TYK2 protein 0.2 ng/μL; read-out: TYK 2 activity
Chain of TYK2 (P29597 whole entry): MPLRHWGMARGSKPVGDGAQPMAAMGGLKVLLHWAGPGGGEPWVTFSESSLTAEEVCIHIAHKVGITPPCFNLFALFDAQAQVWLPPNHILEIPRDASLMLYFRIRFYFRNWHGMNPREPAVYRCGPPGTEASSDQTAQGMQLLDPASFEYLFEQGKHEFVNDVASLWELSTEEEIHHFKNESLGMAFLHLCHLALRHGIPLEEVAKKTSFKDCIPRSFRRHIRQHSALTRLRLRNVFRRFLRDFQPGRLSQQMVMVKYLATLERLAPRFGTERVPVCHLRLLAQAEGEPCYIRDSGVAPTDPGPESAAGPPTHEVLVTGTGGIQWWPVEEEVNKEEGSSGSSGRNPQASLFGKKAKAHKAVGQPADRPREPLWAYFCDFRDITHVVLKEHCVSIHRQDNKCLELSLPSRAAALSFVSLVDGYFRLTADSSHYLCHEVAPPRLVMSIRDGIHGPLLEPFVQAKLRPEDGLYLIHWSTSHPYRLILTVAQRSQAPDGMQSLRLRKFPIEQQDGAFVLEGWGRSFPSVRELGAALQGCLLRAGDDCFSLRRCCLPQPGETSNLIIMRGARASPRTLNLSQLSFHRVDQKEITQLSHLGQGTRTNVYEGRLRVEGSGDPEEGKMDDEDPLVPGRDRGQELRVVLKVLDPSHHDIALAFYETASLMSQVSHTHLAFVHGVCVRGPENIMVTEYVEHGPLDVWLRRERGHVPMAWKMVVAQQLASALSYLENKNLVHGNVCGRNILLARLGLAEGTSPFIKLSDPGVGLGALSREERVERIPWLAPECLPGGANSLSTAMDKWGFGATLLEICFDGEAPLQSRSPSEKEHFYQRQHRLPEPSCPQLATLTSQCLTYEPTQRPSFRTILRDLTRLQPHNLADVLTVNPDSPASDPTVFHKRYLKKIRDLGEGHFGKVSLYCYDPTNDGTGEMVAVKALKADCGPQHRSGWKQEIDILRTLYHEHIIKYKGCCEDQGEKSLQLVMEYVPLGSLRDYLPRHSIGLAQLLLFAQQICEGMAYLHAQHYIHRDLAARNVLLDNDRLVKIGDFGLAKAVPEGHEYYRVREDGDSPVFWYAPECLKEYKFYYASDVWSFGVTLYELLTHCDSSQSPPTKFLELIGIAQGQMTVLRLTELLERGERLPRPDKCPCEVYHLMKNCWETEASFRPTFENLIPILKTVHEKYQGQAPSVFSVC
Outline: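 Activity read as the 665 nm/615 nm ratio after adding EDTA-containing detection mix with anti-phospho-substrate antibody and XL-615. Beforehand, 0.2 ng/μL TYK2, 2 μM ATP, substrate and compound reacted 1 h in pH 7.0 Hepes buffer with MgCl2 and DTT. IC50 fitted with Hill-slope equation.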

JAK3 = biological target: T1, JAK3 (Homo sapiens, UniProt P52333); experiment: JAK kinase activity, homogeneous time-resolved fluorescence (JAK3 reaction system); conditions: ATP 2 μM, JAK3 protein 0.04 ng/μL; read-out: JAK 3 activity
T1 sequence (P52333 1-1124): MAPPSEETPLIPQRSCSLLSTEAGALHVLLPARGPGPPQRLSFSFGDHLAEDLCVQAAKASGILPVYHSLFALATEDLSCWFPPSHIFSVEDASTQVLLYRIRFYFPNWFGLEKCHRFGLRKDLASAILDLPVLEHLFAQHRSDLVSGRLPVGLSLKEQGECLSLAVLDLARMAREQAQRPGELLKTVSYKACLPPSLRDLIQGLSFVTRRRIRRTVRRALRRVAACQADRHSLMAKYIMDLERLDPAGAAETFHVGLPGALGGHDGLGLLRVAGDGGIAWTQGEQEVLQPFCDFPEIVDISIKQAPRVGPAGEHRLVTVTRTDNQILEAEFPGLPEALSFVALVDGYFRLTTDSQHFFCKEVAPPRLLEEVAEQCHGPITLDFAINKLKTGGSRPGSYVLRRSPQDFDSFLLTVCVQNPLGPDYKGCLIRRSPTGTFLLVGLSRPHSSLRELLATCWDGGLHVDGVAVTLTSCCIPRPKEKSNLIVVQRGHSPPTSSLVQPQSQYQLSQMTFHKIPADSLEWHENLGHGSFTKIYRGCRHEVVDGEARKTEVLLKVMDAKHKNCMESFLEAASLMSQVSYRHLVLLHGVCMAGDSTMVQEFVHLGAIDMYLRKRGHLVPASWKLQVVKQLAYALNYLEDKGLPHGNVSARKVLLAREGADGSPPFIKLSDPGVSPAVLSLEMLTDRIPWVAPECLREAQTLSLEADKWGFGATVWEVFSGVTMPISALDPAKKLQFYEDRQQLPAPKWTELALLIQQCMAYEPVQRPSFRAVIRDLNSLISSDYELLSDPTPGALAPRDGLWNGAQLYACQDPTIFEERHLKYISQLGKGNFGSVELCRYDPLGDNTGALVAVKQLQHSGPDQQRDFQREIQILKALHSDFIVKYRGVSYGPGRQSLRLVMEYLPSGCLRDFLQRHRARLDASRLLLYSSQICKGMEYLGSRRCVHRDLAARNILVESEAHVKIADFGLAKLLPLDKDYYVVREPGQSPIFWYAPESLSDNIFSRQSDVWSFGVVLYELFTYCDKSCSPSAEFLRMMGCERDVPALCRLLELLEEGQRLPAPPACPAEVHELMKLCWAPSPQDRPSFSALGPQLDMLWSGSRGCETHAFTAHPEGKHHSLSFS

JAK2 = JAK2 (Homo sapiens, UniProt O60674); experiment: JAK kinase activity, homogeneous time-resolved fluorescence (JAK2 reaction system); conditions: ATP 2 μM, JAK2 protein 0.01 ng/μL
Chain of JAK2 (O60674 whole entry): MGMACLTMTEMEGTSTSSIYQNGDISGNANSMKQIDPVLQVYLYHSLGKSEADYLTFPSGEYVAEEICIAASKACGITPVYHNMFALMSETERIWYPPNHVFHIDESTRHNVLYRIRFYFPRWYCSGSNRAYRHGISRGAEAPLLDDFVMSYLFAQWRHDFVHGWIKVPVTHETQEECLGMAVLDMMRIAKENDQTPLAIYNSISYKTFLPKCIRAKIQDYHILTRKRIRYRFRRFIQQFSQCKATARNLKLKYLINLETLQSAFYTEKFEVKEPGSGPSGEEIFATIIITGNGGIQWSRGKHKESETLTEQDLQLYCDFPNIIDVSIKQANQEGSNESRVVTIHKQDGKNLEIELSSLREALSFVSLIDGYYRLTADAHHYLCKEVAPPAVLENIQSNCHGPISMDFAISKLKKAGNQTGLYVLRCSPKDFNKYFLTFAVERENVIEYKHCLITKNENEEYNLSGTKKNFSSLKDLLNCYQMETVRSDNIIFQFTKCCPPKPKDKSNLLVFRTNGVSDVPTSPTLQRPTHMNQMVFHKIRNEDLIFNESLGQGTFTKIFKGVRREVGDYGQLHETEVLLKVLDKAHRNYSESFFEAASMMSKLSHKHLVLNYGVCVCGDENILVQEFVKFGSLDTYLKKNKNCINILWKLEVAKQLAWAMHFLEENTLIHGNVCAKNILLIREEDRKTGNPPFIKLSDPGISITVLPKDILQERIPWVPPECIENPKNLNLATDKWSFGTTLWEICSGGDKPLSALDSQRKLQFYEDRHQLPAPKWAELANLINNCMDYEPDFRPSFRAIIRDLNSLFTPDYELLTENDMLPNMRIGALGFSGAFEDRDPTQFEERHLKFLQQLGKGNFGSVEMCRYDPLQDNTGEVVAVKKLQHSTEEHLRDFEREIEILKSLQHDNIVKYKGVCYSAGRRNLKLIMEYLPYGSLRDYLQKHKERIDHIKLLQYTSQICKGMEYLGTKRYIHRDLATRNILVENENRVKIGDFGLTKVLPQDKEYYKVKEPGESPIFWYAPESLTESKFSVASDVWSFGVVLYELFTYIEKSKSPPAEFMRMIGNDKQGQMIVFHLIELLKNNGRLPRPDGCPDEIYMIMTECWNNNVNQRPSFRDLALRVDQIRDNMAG
Outline: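 IC50 derived by Hill-equation fit of the 665/615 nm time-resolved fluorescence ratio after EDTA-containing detection mix with anti-phosphosubstrate antibody. Preceding 1 h reaction contained 2 μM ATP, 0.01 ng/μL JAK2, substrate, 50 mM Hepes pH 7.0, 5 mM MgCl2, 1 mM DTT.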

Chain of JAK1 (P23458 whole entry): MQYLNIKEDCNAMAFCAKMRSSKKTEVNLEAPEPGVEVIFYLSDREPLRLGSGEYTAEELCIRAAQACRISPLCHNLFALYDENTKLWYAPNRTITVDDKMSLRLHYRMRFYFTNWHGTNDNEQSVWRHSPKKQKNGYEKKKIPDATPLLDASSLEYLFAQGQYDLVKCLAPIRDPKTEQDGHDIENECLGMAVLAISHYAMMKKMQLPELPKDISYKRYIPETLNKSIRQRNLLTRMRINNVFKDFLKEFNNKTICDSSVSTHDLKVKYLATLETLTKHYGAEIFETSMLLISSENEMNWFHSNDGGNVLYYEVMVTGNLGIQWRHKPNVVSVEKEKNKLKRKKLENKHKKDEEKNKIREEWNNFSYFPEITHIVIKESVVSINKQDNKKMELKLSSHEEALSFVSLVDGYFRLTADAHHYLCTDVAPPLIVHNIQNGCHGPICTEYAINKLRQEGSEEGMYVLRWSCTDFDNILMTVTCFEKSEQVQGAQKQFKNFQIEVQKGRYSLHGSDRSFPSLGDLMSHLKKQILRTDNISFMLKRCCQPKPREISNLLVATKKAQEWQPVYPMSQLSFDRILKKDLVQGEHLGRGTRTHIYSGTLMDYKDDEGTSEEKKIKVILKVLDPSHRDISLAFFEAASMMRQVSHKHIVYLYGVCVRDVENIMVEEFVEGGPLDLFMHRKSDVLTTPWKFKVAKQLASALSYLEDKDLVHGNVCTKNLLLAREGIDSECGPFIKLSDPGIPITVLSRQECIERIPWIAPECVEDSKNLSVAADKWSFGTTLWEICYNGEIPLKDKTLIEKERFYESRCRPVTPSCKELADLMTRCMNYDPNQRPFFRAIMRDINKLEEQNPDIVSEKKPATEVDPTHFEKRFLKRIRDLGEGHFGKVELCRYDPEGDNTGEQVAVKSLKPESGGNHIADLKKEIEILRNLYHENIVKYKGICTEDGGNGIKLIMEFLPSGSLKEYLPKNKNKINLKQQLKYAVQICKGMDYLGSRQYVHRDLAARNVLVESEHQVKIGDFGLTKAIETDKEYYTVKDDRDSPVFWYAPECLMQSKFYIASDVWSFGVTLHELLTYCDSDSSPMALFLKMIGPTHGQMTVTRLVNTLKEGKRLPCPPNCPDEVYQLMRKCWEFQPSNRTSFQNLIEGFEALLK

Row | SMILES | pIC50 (JAK1) | pIC50 (TYK2) | pIC50 (JAK3) | pIC50 (JAK2)
1 | Cc1ccc2cc1COCCCCNC(=O)c1ccc(c(C)c1)-c1nc(ncc1C)N2 [Example 37, 1^2,2^5,4^4-trimethyl-6-oxa-3,11-diaza-2(4,2)-pyrimidina-1(1,4),4(1,3)-di-benzenacyclododecaphan-12-one] | < 5.00 | < 5.00 | 5.00 to 6.00 | < 5.00
2 | Cc1ccc2cc1COCCCCNC(=O)c1ccc(c(C)c1)-c1ccnc(n1)N2 [Example 39, 1^2,4^4-dimethyl-6-oxa-3,11-diaza-2(4,2)-pyrimidina-1(1,4),4(1,3)-diben-zenacyclododecaphan-12-one] | 5.00 to 6.00 | < 5.00 | 6.00 to 7.00 | 5.00 to 6.00
3 | O=C1NCCCCOCc2cc(cc(F)c2F)Nc2nccc(n2)-c2ccc1cc2[N+](=O)[O-] [Example 93, 4^4,4^5-difluoro-1^2-nitro-6-oxa-3,11-di-aza-2(4,2)-pyrimidina-1(1,4),4(1,3)-dibenzenacyclododecaphan-12-one] | 5.00 to 6.00 | < 5.00 | 6.00 to 7.00 | 5.00 to 6.00
4 | O=C1Nc2ccc(cc2)OCc2cc(ccc2Oc2cccnc2)Nc2nccc(n2)-c2ccc1cc2[N+](=O)[O-] [Example 204, 1-nitro-4^4-(pyridin-3-oxy)-6-oxa-3,8-diaza-2(4,2)-pyrimidina-1,7(1,4),4(1,3)-tribenzenacyclononaphen-9-one] | 5.00 to 6.00 | < 5.00 | 5.00 to 6.00 | < 5.00
5 | O=C1NCCCCOCc2cc(ccc2OC2CCCC2)Nc2nccc(n2)-c2ccc1cc2F [Example 92, 4^4-cyclopentoxy-1^2-fluoro-6-oxa-3,11-diaza-2(4,2)-pyrimidina-1(1,4),4(1,3)-dibenzenacyclododecaphan-12-one] | 5.00 to 6.00 | 5.00 to 6.00 | 7.00 to 7.96 | 6.00 to 7.00
6 | CC1CCOCc2cc(ccc2OCC2CCOC2)Nc2nccc(n2)-c2ccc(cc2[N+](=O)[O-])C(=O)NC1 (centres unmarked) [Example 166, 9-methyl-1^2-nitro-4^4-((tetrahydro-furan-3-yl)methoxy)-6-oxa-3,11-di-aza-2(4,2)-pyrimidina-1(1,4),4(1,3)-dibenzenacyclododecaphan-12-one] | 5.00 to 6.00 | < 5.00 | 6.00 to 7.00 | 5.00 to 6.00
7 | Nc1cc2ccc1-c1ccnc(n1)Nc1ccc(OCC3CC3)c(c1)COc1ccc(cc1)NC2=O [Example 208, 1^2-amino-4^4-(cyclopropylmethoxy)-6-oxa-3,8-diaza-2(4,2)-pyrimidina-1,7(1,4),4(1,3)-tribenzenecyclo-nonaphane-9-one] | < 5.00 | < 5.00 | 7.00 to 7.96 | 5.00 to 6.00
8 | Nc1cc2ccc1-c1ccnc(n1)Nc1ccc(Oc3cnc4[nH]ccc4c3)c(c1)COCCCCNC2=O [Example 161, 4^4-((1H-pyrrolo[2,3-b]pyridin-5-yl)oxy)-1^2-amino-6-oxa-3,11-diaza-2(4,2)-pyrimidina-1(1,4),4(1,3)-di-benzenacyclododecaphan-12-one] | 5.00 to 6.00 | < 5.00 | 5.00 to 6.00 | 5.00 to 6.00
9 | O=C1NCCCCOCc2cc(ccc2OC2CCCC2)Nc2nccc(n2)-c2ccc1cc2[N+](=O)[O-] [Example 87, 4^4-cyclopentoxy-1^2-nitro-6-oxa-3,11-diaza-2(4,2)-pyrimidina-1(1,4),4(1,3)-dibenzenacyclododecaphan-12-one] | < 5.00 | < 5.00 | 6.00 to 7.00 | < 5.00
10 | Cc1cc2ccc1-c1ccnc(n1)Nc1ccc(OC3CCCCC3)c(c1)COCCCCNC2=O [Example 44, 1^2-methyl-4^4-cyclohexyloxy-6-oxa-3,11-diaza-2(4,2)-pyrimidina-1(1,4)-4(1,3)-dibenzenacyclododecaphan-12-one] | 5.00 to 6.00 | 5.00 to 6.00 | 7.00 to 7.96 | 6.00 to 7.00

More lines, now with the values ahead:

Row | pIC50 (JAK1) | pIC50 (TYK2) | pIC50 (JAK3) | pIC50 (JAK2) | SMILES
11 | 5.00 to 6.00 | < 5.00 | 5.00 to 6.00 | 5.00 to 6.00 | CNc1cc2ccc1-c1ccnc(n1)Nc1ccc(OC3CC3)c(c1)COCCCCNC2=O [Example 82, 4^4-cyclopropoxy-1^2-methylamino-6-oxa-3,11-diaza-2(4,2)-pyrimidina-1(1,4),4(1,3)-dibenzenacyclododeca-phan-12-one]
12 | 6.00 to 7.00 | 5.00 to 6.00 | > 8.00 | 6.00 to 7.00 | Nc1cc2ccc1-c1ccnc(n1)Nc1ccc(OCC3CCCOC3)c(c1)COCCCCNC2=O (centres unmarked) [Example 147]
13 | 5.00 to 6.00 | < 5.00 | 6.00 to 7.00 | 5.00 to 6.00 | COc1ccc(F)cc1COc1ccc2cc1COCCCCNC(=O)c1ccc(c(N)c1)-c1ccnc(n1)N2 [Example 177, 1^2-amino-4^4-((5-fluoro-2-methoxy-benzyl)oxy)-6-oxa-3,11-diaza-2(4,2)-pyrimidina-1(1,4),4(1,3)-dibenz-enacyclododecaphan-12-one]
14 | 5.00 to 6.00 | < 5.00 | 6.00 to 7.00 | 5.00 to 6.00 | O=C1NCCCCOCc2cc(ccc2OCC2CCOC2)Nc2nccc(n2)-c2ccc1cc2[N+](=O)[O-] (centres unmarked) [Example 124, 1^2-nitro-4^4-((tetrahydrofuran-3-yl)methoxy)-6-oxa-3,11-diaza-2(4,2)-pyrimidina-1(1,4),4(1,3)-dibenzena-cyclododecaphan-12-one]
15 | 6.00 to 7.00 | 6.00 to 7.00 | 7.00 to 7.96 | 7.00 to 7.96 | CN(C)c1ccc2cc1COCCCCNC(=O)c1ccc(c(F)c1)-c1ccnc(n1)N2 [Example 28, 1^2-fluoro-4^4-dimethylamino-6-oxa-3,11-diaza-2(4,2)-pyrimidina-1(1,4),4(1,3)-dibenzenacyclododecaphan-12-one]
16 | 5.00 to 6.00 | 5.00 to 6.00 | 5.00 to 6.00 | 5.00 to 6.00 | O=C1NCCCCOCc2cc(ccc2N2CCSCC2)Nc2nccc(n2)-c2ccc1cc2[N+](=O)[O-] [Example 65, 1^2-nitro-4^4-thiomorpholin-6-oxa-3,11-diaza-2(4,2)-pyrimidina-1(1,4),4(1,3)-dibenzenacyclododecaphan-12-one]
17 | 5.00 to 6.00 | < 5.00 | 6.00 to 7.00 | 5.00 to 6.00 | Cc1ccc2cc1COCCCCNC(=O)c1ccc(c(N)c1)-c1ccnc(n1)N2 [Example 43, 1^2-amino-4^4-methyl-6-oxa-3,11-dia-za-2(4,2)-pyrimidina-1(1,4),4(1,3)-dibenzenacyclododecaphan-12-one]
18 | 6.00 to 7.00 | 5.00 to 6.00 | > 8.00 | 6.00 to 7.00 | CC1CCNC(=O)c2ccc(c(N)c2)-c2ccnc(n2)Nc2ccc(OCC3CC3)c(c2)COC1 (centres unmarked) [Example 145, 1^2-amino-4^4-(cyclopropylmethoxy)-8-methyl-6-oxa-3,11-diaza-2(4,2)-pyrimidina-1(1,4),4(1,3)-dibenzena-cyclododecaphan-12-one]
19 | 6.00 to 7.00 | 6.00 to 7.00 | 7.00 to 7.96 | 7.00 to 7.96 | O=C1NCCCCOCc2cc(ccc2N2CCOCC2)Nc2ncc(Cl)c(n2)-c2ccc1cc2F [Example 14, 2^5-chloro-1^2-fluoro-4^4-morpholin-6-oxa-3,11-diaza-2(4,2)-pyrimidina-1-(1,4),4(1,3)-dibenzenacyclododeca-phan-12-one]
20 | 6.00 to 7.00 | 6.00 to 7.00 | > 8.00 | 7.00 to 7.96 | CC1CCOCc2cc(ccc2OC(C)C)Nc2nccc(n2)-c2ccc(cc2N)C(=O)NC1 (centres unmarked) [Example 178, 1^2-amino-4^4-isopropoxy-9-methyl-6-oxa-3,11-diaza-2(4,2)-pyrimidin-a-1(1,4)4(1,3)-dibenzenacyclododeca-phan-12-one]
